Reference: patent publication US9663501B1, “Process for preparing a novel crystalline form of thifensulfuron-methyl and use of the same” (ROTAM AGROCHEM INTERNATIONAL COMPANY LIMITED, priority 2015, dated 2017)

Tests used:
[1] = Cleanout test (residue in polyethylene bottles, acetonitrile extract, HPLC); type: physicochemical; conditions: for Cleanout rating (concentration of thifensulfuron-methyl in the acetonitrile solution): lower rating = more effective cleanout
Procedure: The test was conducted by dispersing in water a sample to produce a concentration that is normally used when applying the herbicide: 25% thifensulfuron-methyl. The sample was added to tap water (300 mL) in a 400 mL beaker and magnetically stirred for 2 minutes. The mixture was then stirred for 2 minutes, whereupon the resulting dispersion was dispensed in three 100 mL aliquots to 4-oz (118 mL) polyethylene bottles. The bottles were capped, inverted twice and allowed to stand overnight.
After standing overnight, each individual bottle was inverted twice and the liquid contents were then poured out. Tap water (10 mL) was added and the bottle was inverted until all sediment was re-suspended, whereupon the contents were poured out. Tap water (100 mL) was added and the bottle was inverted twice and then allowed to stand undisturbed for 10 minutes. The bottle was inverted twice more and the contents were poured out. Acetonitrile (10 mL) was added to the bottle to extract any remaining material. The acetonitrile solution was analyzed by reversed-phase liquid chromatography with UV detection. The cleanout rating (the concentration of thifensulfuron-methyl herbicide in the acetonitrile solution) is reported in % in Table 6 below.

[2] = Viscosity (stated in words, no method given); type: physicochemical

Row | SMILES | Cleanout rating (concentration of thifensulfuron-methyl in the acetonitrile solution) ([1]; OD formulation) | Cleanout rating (concentration of thifensulfuron-methyl in the acetonitrile solution) ([1]; SG formulation) | Cleanout rating (concentration of thifensulfuron-methyl in the acetonitrile solution) ([1]; WG formulation) | Viscosity, in words ([2]; listed as thifensulfuron-methyl in amorphous state) | Cleanout properties, in words ([1]; compared with known amorphous thifensulfuron-methyl product) | Viscosity, in words ([2]; listed as crystalline modification I of thifensulfuron-methyl)
1 | COC(=O)c1sccc1S(=O)(=O)NC(=O)Nc1nc(C)nc(OC)n1 [Amorphous thifensulfuron-methyl, methyl 3-(4-methoxy-6-methyl-1,3,5-triazin-2-ylcarbamoylsulfamoyl)thiophene-2-carboxylate, reference compound] | 26% | 10% | 13% | highly viscous | – | –
2 | COC(=O)c1sccc1S(=O)(=O)NC(=O)Nc1nc(C)nc(OC)n1 [Thifensulfuron-methyl, crystalline modification I] [methyl 3-(4-methoxy-6-methyl-1,3,5-triazin-2-ylcarbamoylsulfamoyl)thiophene-2-carboxylate] | 5% | 0.1% | 2% | – | markedly superior cleanout properties | significant decrease in its viscosity
